# Patent publication EP4722207A1, “OXOISOINDOLINYL-SUBSTITUTED TETRAHYDROPYRIMIDINEDIONE DERIVATIVE AND USE THEREOF” (Gluetacs Therapeutics (Shanghai) Co., Ltd., priority 2023, dated 2024)
# What was measured:
# Assay type in all cases: cell-based
# Settings in all cases: 24 hours of compound treatment, 50 nM and 500 nM
# [1] = target: T1, WEE1 (Homo sapiens, UniProt P30291+Q96SW2); assay: Western-blot assay, substrate protein degradation in hPBMCs: WEE1
# T1 construct: effects of the compounds of the present disclosure on the expression of target proteins in cells; endogenous in cells; host or cells: human PBMCs (hPBMCs)
# T1 sequence (P30291 whole entry): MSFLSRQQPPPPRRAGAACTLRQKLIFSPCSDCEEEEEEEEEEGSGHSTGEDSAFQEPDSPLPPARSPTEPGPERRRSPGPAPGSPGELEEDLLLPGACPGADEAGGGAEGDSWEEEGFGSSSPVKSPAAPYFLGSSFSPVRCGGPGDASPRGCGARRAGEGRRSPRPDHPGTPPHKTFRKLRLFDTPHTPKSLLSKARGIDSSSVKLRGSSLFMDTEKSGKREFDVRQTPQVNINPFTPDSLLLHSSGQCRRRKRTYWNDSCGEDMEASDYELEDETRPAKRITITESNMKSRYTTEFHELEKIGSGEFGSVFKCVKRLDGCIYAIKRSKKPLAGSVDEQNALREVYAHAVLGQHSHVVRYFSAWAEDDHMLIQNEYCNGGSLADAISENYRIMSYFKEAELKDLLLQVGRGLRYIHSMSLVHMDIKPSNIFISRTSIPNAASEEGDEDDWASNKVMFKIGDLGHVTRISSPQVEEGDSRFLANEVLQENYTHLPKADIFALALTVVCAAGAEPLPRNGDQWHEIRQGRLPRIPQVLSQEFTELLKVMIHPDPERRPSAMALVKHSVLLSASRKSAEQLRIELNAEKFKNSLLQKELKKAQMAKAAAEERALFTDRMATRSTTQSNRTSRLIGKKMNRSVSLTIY
# T1 sequence (Q96SW2 whole entry): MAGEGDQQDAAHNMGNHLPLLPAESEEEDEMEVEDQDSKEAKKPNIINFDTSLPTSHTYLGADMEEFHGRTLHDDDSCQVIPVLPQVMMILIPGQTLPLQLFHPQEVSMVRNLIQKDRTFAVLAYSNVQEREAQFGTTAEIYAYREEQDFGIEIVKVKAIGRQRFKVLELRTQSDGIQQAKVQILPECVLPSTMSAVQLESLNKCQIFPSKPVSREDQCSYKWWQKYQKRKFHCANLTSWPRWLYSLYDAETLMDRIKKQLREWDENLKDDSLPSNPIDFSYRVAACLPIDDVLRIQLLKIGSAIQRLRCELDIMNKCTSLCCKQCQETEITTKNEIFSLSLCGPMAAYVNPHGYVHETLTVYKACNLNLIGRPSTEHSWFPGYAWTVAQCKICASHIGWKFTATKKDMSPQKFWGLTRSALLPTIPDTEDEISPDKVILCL
# T1 sequence (Q16531 whole entry partner): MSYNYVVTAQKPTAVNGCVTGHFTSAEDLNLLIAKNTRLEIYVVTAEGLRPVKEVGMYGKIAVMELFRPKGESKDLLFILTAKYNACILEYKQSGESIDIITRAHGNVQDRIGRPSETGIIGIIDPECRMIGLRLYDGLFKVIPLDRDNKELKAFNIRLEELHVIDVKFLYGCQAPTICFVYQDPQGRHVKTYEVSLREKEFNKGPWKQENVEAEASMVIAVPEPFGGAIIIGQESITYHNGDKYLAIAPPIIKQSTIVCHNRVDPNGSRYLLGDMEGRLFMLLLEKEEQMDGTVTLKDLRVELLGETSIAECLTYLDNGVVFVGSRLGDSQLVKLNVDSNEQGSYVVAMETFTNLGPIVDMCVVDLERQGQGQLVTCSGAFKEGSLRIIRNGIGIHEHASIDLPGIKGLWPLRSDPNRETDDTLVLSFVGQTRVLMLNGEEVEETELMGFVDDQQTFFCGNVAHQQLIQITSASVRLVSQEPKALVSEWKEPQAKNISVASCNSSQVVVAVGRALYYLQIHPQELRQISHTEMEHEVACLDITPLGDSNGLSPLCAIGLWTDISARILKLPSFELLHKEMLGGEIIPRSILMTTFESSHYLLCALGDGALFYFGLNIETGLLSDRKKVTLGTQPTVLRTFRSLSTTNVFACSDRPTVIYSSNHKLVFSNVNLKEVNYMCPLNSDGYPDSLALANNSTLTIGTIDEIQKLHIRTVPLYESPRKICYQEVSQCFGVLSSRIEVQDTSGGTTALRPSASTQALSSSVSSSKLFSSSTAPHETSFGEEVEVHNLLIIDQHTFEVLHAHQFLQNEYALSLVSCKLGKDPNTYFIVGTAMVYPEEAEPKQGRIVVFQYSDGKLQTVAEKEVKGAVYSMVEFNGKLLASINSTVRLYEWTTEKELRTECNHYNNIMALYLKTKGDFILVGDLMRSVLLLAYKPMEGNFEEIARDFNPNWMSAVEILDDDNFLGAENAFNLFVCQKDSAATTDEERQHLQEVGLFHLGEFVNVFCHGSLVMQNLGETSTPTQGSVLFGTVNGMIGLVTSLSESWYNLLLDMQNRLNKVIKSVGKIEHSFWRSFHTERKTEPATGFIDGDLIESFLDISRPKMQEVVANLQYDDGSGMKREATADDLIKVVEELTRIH
# [2] = target: T2, IKZF1 (Homo sapiens, UniProt Q13422+Q96SW2); assay: Western-blot assay, substrate protein degradation in hPBMCs: IKZF1
# T2 construct: effects of the compounds of the present disclosure on the expression of target proteins in cells; endogenous in cells; host or cells: human PBMCs (hPBMCs)
# T2 sequence (Q13422 whole entry): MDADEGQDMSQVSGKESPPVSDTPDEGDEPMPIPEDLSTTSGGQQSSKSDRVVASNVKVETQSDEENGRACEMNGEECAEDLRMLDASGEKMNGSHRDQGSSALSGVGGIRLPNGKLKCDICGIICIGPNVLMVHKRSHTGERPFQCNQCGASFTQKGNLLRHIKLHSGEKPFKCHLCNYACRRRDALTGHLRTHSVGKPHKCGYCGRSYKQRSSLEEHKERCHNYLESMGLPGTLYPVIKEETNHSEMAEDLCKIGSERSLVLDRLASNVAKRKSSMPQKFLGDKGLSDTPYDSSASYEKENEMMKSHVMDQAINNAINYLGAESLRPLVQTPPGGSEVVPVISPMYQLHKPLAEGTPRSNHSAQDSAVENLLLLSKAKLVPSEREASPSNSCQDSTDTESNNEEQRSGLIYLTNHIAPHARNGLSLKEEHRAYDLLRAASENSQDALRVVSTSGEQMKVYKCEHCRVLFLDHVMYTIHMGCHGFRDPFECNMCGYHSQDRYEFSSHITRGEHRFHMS
# T2 sequence (Q96SW2 whole entry): as the sequence (Q96SW2 whole entry) above
# T2 sequence (Q16531 whole entry partner): as the sequence (Q16531 whole entry partner) above
# [3] = target: T3, IKZF2 (Homo sapiens, UniProt Q96SW2+Q9UKS7); assay: Western-blot assay, substrate protein degradation in hPBMCs: IKZF2
# T3 construct: effects of the compounds of the present disclosure on the expression of target proteins in cells; endogenous in cells; host or cells: human PBMCs (hPBMCs)
# T3 sequence (Q9UKS7 whole entry): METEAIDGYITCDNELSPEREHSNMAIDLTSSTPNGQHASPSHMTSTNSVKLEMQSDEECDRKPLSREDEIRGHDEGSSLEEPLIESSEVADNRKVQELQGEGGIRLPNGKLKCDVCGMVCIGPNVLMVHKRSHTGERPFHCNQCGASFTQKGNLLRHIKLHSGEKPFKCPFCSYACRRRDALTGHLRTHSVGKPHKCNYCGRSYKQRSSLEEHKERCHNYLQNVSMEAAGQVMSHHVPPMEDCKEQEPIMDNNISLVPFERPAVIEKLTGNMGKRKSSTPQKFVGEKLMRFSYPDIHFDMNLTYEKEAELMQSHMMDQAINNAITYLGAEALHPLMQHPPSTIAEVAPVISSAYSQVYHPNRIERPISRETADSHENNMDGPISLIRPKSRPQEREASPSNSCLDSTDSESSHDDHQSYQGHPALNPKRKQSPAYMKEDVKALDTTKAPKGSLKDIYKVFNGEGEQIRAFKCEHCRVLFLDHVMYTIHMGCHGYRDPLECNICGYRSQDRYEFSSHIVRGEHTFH
# T3 sequence (Q96SW2 whole entry): as the sequence (Q96SW2 whole entry) above
# T3 sequence (Q16531 whole entry partner): as the sequence (Q16531 whole entry partner) above
# [4] = target: T4, IKZF3 (Homo sapiens, UniProt Q96SW2+Q9UKT9); assay: Western-blot assay, substrate protein degradation in hPBMCs: IKZF3
# T4 construct: effects of the compounds of the present disclosure on the expression of target proteins in cells; endogenous in cells; host or cells: human PBMCs (hPBMCs)
# T4 sequence (Q9UKT9 whole entry): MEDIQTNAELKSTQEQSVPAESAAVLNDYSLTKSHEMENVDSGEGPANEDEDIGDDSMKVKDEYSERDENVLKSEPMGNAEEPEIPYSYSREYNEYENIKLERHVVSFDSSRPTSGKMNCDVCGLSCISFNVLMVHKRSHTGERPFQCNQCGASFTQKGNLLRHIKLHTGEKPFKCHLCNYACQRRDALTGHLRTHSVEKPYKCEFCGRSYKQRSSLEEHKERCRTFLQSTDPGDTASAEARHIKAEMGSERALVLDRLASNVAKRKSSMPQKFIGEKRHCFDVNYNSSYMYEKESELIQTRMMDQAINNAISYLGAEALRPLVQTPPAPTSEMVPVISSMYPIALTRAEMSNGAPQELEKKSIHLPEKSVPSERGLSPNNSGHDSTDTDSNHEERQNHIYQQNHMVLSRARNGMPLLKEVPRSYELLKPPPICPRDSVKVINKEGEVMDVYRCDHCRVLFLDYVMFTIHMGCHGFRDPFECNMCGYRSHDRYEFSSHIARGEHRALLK
# T4 sequence (Q96SW2 whole entry): as the sequence (Q96SW2 whole entry) above
# T4 sequence (Q16531 whole entry partner): as the sequence (Q16531 whole entry partner) above
# [5] = target: T5, CK1α (Homo sapiens, UniProt P48729+Q96SW2); assay: Western-blot assay, substrate protein degradation in hPBMCs: CK1α
# T5 construct: effects of the compounds of the present disclosure on the expression of target proteins in cells; endogenous in cells; host or cells: human PBMCs (hPBMCs)
# T5 sequence (P48729 whole entry): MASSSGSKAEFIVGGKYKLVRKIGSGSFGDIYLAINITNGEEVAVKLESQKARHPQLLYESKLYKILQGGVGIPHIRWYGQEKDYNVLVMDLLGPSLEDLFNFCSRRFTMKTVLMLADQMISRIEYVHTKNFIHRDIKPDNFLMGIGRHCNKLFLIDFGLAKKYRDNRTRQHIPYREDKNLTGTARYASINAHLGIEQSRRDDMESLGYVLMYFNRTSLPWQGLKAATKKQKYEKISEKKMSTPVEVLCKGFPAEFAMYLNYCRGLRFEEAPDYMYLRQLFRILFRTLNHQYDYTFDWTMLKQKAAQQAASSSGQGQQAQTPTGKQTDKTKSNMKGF
# T5 sequence (Q96SW2 whole entry): as the sequence (Q96SW2 whole entry) above
# T5 sequence (Q16531 whole entry partner): as the sequence (Q16531 whole entry partner) above
# [6] = target: T6, GSPT1 (Homo sapiens, UniProt P15170+Q96SW2); assay: Western-blot assay, substrate protein degradation in hPBMCs: GSPT1
# T6 construct: effects of the compounds of the present disclosure on the expression of target proteins in cells; endogenous in cells; host or cells: human PBMCs (hPBMCs)
Structure (SMILES),substrate protein remaining % WEE1 [1],substrate protein remaining % IKZF1 [2],substrate protein remaining % IKZF2 [3],substrate protein remaining % IKZF3 [4],substrate protein remaining % CK1α [5],substrate protein remaining % GSPT1 [6]
"O=C1CCN(N2Cc3cc(CN4CCC(c5ccnc6cc(F)ccc56)CC4)ccc3C2=O)C(=O)N1 [GT-07645, 1-(5-((4-(7-fluoroquinolin-4-yl)piperidin-1-yl)methyl)-1-oxoisoindolin-2-yl)dihydropyrimidine-2,4(1H,3H)-dione]",B (80%< substrate protein remaining %≤ 100%),A (0% ≤ substrate protein remaining % ≤ 80%),B (80%< substrate protein remaining %≤ 100%),B (80%< substrate protein remaining %≤ 100%),B (80%< substrate protein remaining %≤ 100%),A (0% ≤ substrate protein remaining % ≤ 80%)
"O=C1CCN(N2C(=O)c3ccc(CN4CCC(N5CCCc6cc(F)ccc65)CC4)cc3C2=O)C(=O)N1 [GT-07681, 2-(2,4-dioxotetrahydropyrimidin-1(2H)-yl)-5-((4-(6-fluoro-3,4-dihydroquinolin-1(2H)-yl)piperidin-1-yl)methyl)isoindoline-1,3-dione]",B (80%< substrate protein remaining %≤ 100%),A (0% ≤ substrate protein remaining % ≤ 80%),B (80%< substrate protein remaining %≤ 100%),B (80%< substrate protein remaining %≤ 100%),B (80%< substrate protein remaining %≤ 100%),A (0% ≤ substrate protein remaining % ≤ 80%)
"O=C1CCN(N2C(=O)c3ccc(CN4CCC(N5CCOc6cc(F)ccc65)CC4)cc3C2=O)C(=O)N1 [GT-07682, 2-(2,4-dioxotetrahydropyrimidin-1(2H)-yl)-5-((4-(7-fluoro-2,3-dihydro-4H-benzo[b][1,4]oxazin-4-yl)piperidin-1-yl)methyl)isoindoline-1,3-dione]",B (80%< substrate protein remaining %≤ 100%),B (80%< substrate protein remaining %≤ 100%),B (80%< substrate protein remaining %≤ 100%),B (80%< substrate protein remaining %≤ 100%),B (80%< substrate protein remaining %≤ 100%),A (0% ≤ substrate protein remaining % ≤ 80%)
"O=C1CCN(N2C(=O)c3ccc(CN4CCC(N5C(=O)COc6cc(F)ccc65)CC4)cc3C2=O)C(=O)N1 [GT-07683, 2-(2,4-dioxotetrahydropyrimidin-1(2H)-yl)-5-((4-(7-fluoro-3-oxo-2,3-dihydro-4H-benzo[b][1,4]oxazin-4-yl)piperidin-1-yl)methyl)isoindoline-1,3-dione]",B (80%< substrate protein remaining %≤ 100%),B (80%< substrate protein remaining %≤ 100%),B (80%< substrate protein remaining %≤ 100%),B (80%< substrate protein remaining %≤ 100%),B (80%< substrate protein remaining %≤ 100%),A (0% ≤ substrate protein remaining % ≤ 80%)
"O=C1CCN(N2C(=O)c3ccc(CN4CCC(C5CCOc6cc(F)ccc65)CC4)cc3C2=O)C(=O)N1 (stereo not drawn) [GT-07684, 2-(2,4-dioxotetrahydropyrimidin-1(2H)-yl)-5-((4-(7-fluorochroman-4-yl)piperidin-1-yl)methyl)isoindoline-1,3-dione]",B (80%< substrate protein remaining %≤ 100%),B (80%< substrate protein remaining %≤ 100%),B (80%< substrate protein remaining %≤ 100%),B (80%< substrate protein remaining %≤ 100%),B (80%< substrate protein remaining %≤ 100%),A (0% ≤ substrate protein remaining % ≤ 80%)
"O=C1CCN(N2C(=O)c3ccc(CN4CCC(=C5CCOc6cc(F)ccc65)CC4)cc3C2=O)C(=O)N1 [GT-07685, 2-(2,4-dioxotetrahydropyrimidin-1(2H)-yl)-5-((4-(7-fluorochroman-4-ylidene)piperidin-1-yl)methyl)isoindoline-1,3-dione]",B (80%< substrate protein remaining %≤ 100%),B (80%< substrate protein remaining %≤ 100%),B (80%< substrate protein remaining %≤ 100%),B (80%< substrate protein remaining %≤ 100%),B (80%< substrate protein remaining %≤ 100%),A (0% ≤ substrate protein remaining % ≤ 80%)
"O=C1CCN(N2C(=O)c3ccc(CN4CCC(c5cccc6c(F)cccc56)CC4)cc3C2=O)C(=O)N1 [GT-07686, 2-(2,4-dioxotetrahydropyrimidin-1(2H)-yl)-5-((4-(5-fluoronaphthalen-1-yl)piperidin-1-yl)methyl)isoindoline-1,3-dione]",B (80%< substrate protein remaining %≤ 100%),B (80%< substrate protein remaining %≤ 100%),B (80%< substrate protein remaining %≤ 100%),B (80%< substrate protein remaining %≤ 100%),B (80%< substrate protein remaining %≤ 100%),A (0% ≤ substrate protein remaining % ≤ 80%)
"O=C1CCN(N2C(=O)c3ccc(CN4CC=C(c5cccc6c(F)cccc56)CC4)cc3C2=O)C(=O)N1 [GT-07687, 2-(2,4-dioxotetrahydropyrimidin-1(2H)-yl)-5-((4-(5-fluoronaphthalen-1-yl)-3,6-dihydropyridin-1(2H)-yl)methyl)isoindoline-1,3-dione]",B (80%< substrate protein remaining %≤ 100%),B (80%< substrate protein remaining %≤ 100%),B (80%< substrate protein remaining %≤ 100%),B (80%< substrate protein remaining %≤ 100%),B (80%< substrate protein remaining %≤ 100%),A (0% ≤ substrate protein remaining % ≤ 80%)
"O=C1CCN(N2C(=O)c3ccc(CN4CCC(c5cccc6cnccc56)CC4)cc3C2=O)C(=O)N1 [GT-07688, 2-(2,4-dioxotetrahydropyrimidin-1(2H)-yl)-5-((4-(isoquinolin-5-yl)piperidin-1-yl)methyl)isoindoline-1,3-dione]",B (80%< substrate protein remaining %≤ 100%),B (80%< substrate protein remaining %≤ 100%),B (80%< substrate protein remaining %≤ 100%),B (80%< substrate protein remaining %≤ 100%),B (80%< substrate protein remaining %≤ 100%),A (0% ≤ substrate protein remaining % ≤ 80%)
"O=C1CCN(N2C(=O)c3ccc(CN4CCC(c5ccnc6cc(F)ccc56)CC4)cc3C2=O)C(=O)N1 [GT-07689, 2-(2,4-dioxotetrahydropyrimidin-1(2H)-yl)-5-((4-(7-fluoroquinolin-4-yl)piperidin-1-yl)methyl)isoindoline-1,3-dione]",B (80%< substrate protein remaining %≤ 100%),B (80%< substrate protein remaining %≤ 100%),B (80%< substrate protein remaining %≤ 100%),B (80%< substrate protein remaining %≤ 100%),A (0% ≤ substrate protein remaining % ≤ 80%),A (0% ≤ substrate protein remaining % ≤ 80%)
"O=C1CCN(N2Cc3cc(CN4CC(C5CCOc6cc(F)ccc65)C4)ccc3C2=O)C(=O)N1 (stereo not drawn) [GT-07690, 1-(5-((3-(7-fluorochroman-4-yl)azetidin-1-yl)methyl)-1-oxoisoindolin-2-yl)dihydropyrimidine-2,4(1H,3H)-dione]",B (80%< substrate protein remaining %≤ 100%),B (80%< substrate protein remaining %≤ 100%),A (0% ≤ substrate protein remaining % ≤ 80%),B (80%< substrate protein remaining %≤ 100%),A (0% ≤ substrate protein remaining % ≤ 80%),A (0% ≤ substrate protein remaining % ≤ 80%)
"O=C1CCN(N2Cc3cc(CN4CC(c5ccnc6cc(F)ccc56)C4)ccc3C2=O)C(=O)N1 [GT-07711, 1-(5-((3-(7-fluoroquinolin-4-yl)azetidin-1-yl)methyl)-1-oxoisoindolin-2-yl)dihydropyrimidine-2,4(1H,3H)-dione]",B (80%< substrate protein remaining %≤ 100%),A (0% ≤ substrate protein remaining % ≤ 80%),A (0% ≤ substrate protein remaining % ≤ 80%),A (0% ≤ substrate protein remaining % ≤ 80%),A (0% ≤ substrate protein remaining % ≤ 80%),A (0% ≤ substrate protein remaining % ≤ 80%)
"O=C1CCN(N2C(=O)c3ccc(CN4CC(C5CCOc6cc(F)ccc65)C4)cc3C2=O)C(=O)N1 (stereo not drawn) [GT-07715, 2-(2,4-dioxotetrahydropyrimidin-1(2H)-yl)-5-((3-(7-fluorochroman-4-yl)azetidin-1-yl)methyl)isoindoline-1,3-dione]",B (80%< substrate protein remaining %≤ 100%),B (80%< substrate protein remaining %≤ 100%),B (80%< substrate protein remaining %≤ 100%),B (80%< substrate protein remaining %≤ 100%),A (0% ≤ substrate protein remaining % ≤ 80%),A (0% ≤ substrate protein remaining % ≤ 80%)
